Measured values from the NIST ThermoML archive (doi:10.1021/je700428f).

Assay: xn = mol fraction of the nth substance listed
Details: 101 kPa, Liquid; for viscosity: Capillary tube (Ostwald / Ubbelohde) method

COC(C)(C)C [2-methoxy-2-methylpropane] + CCCCCCCCCC
Details	mass density [kg/m3]	viscosity [mPa·s]
273.15 K, x1 = 0.1016	–	1.2
273.15 K, x1 = 0.1019	745.52	–
273.15 K, x1 = 0.2002	–	1.093
273.15 K, x1 = 0.2041	746.17	–
273.15 K, x1 = 0.3003	–	1.004
273.15 K, x1 = 0.3077	747.06	–
273.15 K, x1 = 0.3999	748	–
273.15 K, x1 = 0.4013	–	0.909
273.15 K, x1 = 0.4992	–	0.822
273.15 K, x1 = 0.5005	749.23	–
273.15 K, x1 = 0.6005	–	0.741
273.15 K, x1 = 0.6066	750.84	–
273.15 K, x1 = 0.6866	752.32	–
273.15 K, x1 = 0.7	–	0.659
273.15 K, x1 = 0.7973	754.83	–
273.15 K, x1 = 0.8005	–	0.584
273.15 K, x1 = 0.8996	–	0.513
273.15 K, x1 = 0.8999	757.82	–
273.15 K, x1 = 1	761.34	–
278.15 K, x1 = 0.1016	–	1.092
278.15 K, x1 = 0.1019	741.7	–
278.15 K, x1 = 0.2002	–	1.002
278.15 K, x1 = 0.2041	742.28	–
278.15 K, x1 = 0.3003	–	0.924
278.15 K, x1 = 0.3077	743.09	–
278.15 K, x1 = 0.3999	743.94	–
278.15 K, x1 = 0.4013	–	0.841
278.15 K, x1 = 0.4992	–	0.765
278.15 K, x1 = 0.5005	745.06	–
278.15 K, x1 = 0.6005	–	0.689
278.15 K, x1 = 0.6066	746.53	–
278.15 K, x1 = 0.6866	747.9	–
278.15 K, x1 = 0.7	–	0.615
278.15 K, x1 = 0.7973	750.21	–
278.15 K, x1 = 0.8005	–	0.547
278.15 K, x1 = 0.8996	–	0.481
278.15 K, x1 = 0.8999	752.99	–
278.15 K, x1 = 1	756.14	–
283.15 K, x1 = 0.1016	–	1.001
283.15 K, x1 = 0.1019	737.88	–
283.15 K, x1 = 0.2002	–	0.923
283.15 K, x1 = 0.2041	738.38	–
283.15 K, x1 = 0.3003	–	0.855
283.15 K, x1 = 0.3077	739.1	–
283.15 K, x1 = 0.3999	739.86	–
283.15 K, x1 = 0.4013	–	0.779
283.15 K, x1 = 0.4992	–	0.713
283.15 K, x1 = 0.5005	740.87	–
283.15 K, x1 = 0.6005	–	0.643
283.15 K, x1 = 0.6066	742.2	–
283.15 K, x1 = 0.6866	743.44	–
283.15 K, x1 = 0.7	–	0.575
283.15 K, x1 = 0.7973	745.55	–
283.15 K, x1 = 0.8005	–	0.513
283.15 K, x1 = 0.8996	–	0.452
283.15 K, x1 = 0.8999	748.12	–
283.15 K, x1 = 1	751.02	–
288.15 K, x1 = 0.1016	–	0.923
288.15 K, x1 = 0.1019	734.04	–
288.15 K, x1 = 0.2002	–	0.856
288.15 K, x1 = 0.2041	734.47	–
288.15 K, x1 = 0.3003	–	0.793
288.15 K, x1 = 0.3077	735.1	–
288.15 K, x1 = 0.3999	735.77	–
288.15 K, x1 = 0.4013	–	0.726
288.15 K, x1 = 0.4992	–	0.664
288.15 K, x1 = 0.5005	736.66	–
288.15 K, x1 = 0.6005	–	0.601
288.15 K, x1 = 0.6066	737.84	–
288.15 K, x1 = 0.7	–	0.54
288.15 K, x1 = 0.8005	–	0.481
288.15 K, x1 = 0.8996	–	0.426
